In US20020137929A1, “1 - (3-heterocyclylphenyl) isothiourea, -isourea, -guanidine and -amidine herbicidal agents” (Intellectual Property Department, BASF Aktiengesellschaft, priority 1998, published 2002):

Legend:
[1] = system: GALAP (Galium); assay: Postemergence herbicidal evaluation; assay type: in vivo, Galium aparine; conditions: postemergence
How it was run: (§1)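 First, seedlings were raised for around two weeks. Next, test material in 50/50 acetone/water containing 0.5% TWEEN 20 was sprayed through a nozzle at 40 psi, equivalent to about 0.0156–0.500 kg/ha. Finally, after 4–5 weeks in the greenhouse, plants were rated 0–9.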

[2] = system: CYPIR (Rice Flatsedge); assay: Preemergence weed control under flooded paddy conditions; assay type: in vivo, Cyperus iria; conditions: rated 3-4 weeks after treatment
How it was run: (§2)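 Seeds or propagules sown in silt loam kept flooded 1.5-3 cm; compounds in 50/50 acetone/water pipetted into flood water at about 0.0313 to 0.500 kg/ha. Greenhouse; visual 0-9 rating versus untreated control 3-4 weeks after treatment.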

[3] = system: ECHORC (Watergrass (Calif.)); assay: as above; assay type: in vivo, Echinochloa oryzoides; conditions: rated 3-4 weeks after treatment
How it was run: as §2

[4] = system: TRZAWR (Wheat, Winter, cv Riband); assay: Preemergence herbicidal evaluation; assay type: in vivo, Triticum aestivum; conditions: rated 4-5 weeks after treatment
How it was run: (§3)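 In this greenhouse assay, monocot and dicot seeds are planted in soil and treated prior to emergence with an aqueous acetone spray (about 0.0156-0.500 kg/ha). Plants are assessed visually against control on a 0-9 scale after 4-5 weeks.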

[5] = system: CHEAL (Lambsquarters, Common); assay: Preemergence herbicidal evaluation; assay type: in vivo, Chenopodium album; conditions: rated 4-5 weeks after treatment
How it was run: as §3

[6] = system: CASOB (Sicklepod); assay: Postemergence herbicidal evaluation; assay type: in vivo, Cassia obtusifolia; conditions: postemergence
How it was run: as §1

[7] = system: AMBEL (Ragweed, Common); assay: Preemergence herbicidal evaluation; assay type: in vivo, Ambrosia artemisifolia; conditions: rated 4-5 weeks after treatment
How it was run: as §3

[8] = system: ZEAMX (Corn, Field); assay: Preemergence herbicidal evaluation; assay type: in vivo, Zea mays; conditions: rated 4-5 weeks after treatment
How it was run: as §3

[9] = system: CYPSE (Flatsedge); assay: Preemergence weed control under flooded paddy conditions; assay type: in vivo, Cyperus serotinus; conditions: rated 3-4 weeks after treatment
How it was run: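 Greenhouse paddy assay. Acetone/water (50/50 v/v) solutions dosed into flood water, equivalent to about 0.0313 to 0.500 kg/ha active ingredient, over seeds planted 0.5 cm deep in silt loam. Score: 0-9 visual, based on stand, vigor, malformation, size and chlorosis, 3 to 4 weeks after treatment.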

[10] = system: IPOHE (Morningglory, Ivyleaf); assay: Preemergence herbicidal evaluation; assay type: in vivo, Ipomoea hederacea; conditions: rated 4-5 weeks after treatment
How it was run: as §3

[11] = system: ORYSAT (Rice, Tebonnet); assay: Preemergence herbicidal evaluation; assay type: in vivo, Oryza sativa, (L.) Tebonnet; conditions: rated 4-5 weeks after treatment
How it was run: as §3

[12] = system: ZEAMX (Corn, Field); assay: Postemergence herbicidal evaluation; assay type: in vivo, Zea mays; conditions: postemergence
How it was run: as §1

[13] = rate 0.0313 kg/ha, rating scale 0-9
[14] = rate 0.0625 kg/ha, rating scale 0-9
[15] = rate 0.1250 kg/ha, rating scale 0-9
[16] = rate 0.2500 kg/ha, rating scale 0-9

CC(C)OC(=O)CN1C(=O)CSC1=Nc1cc(-n2c(=O)cc(C(F)(F)F)n(C)c2=O)c(F)cc1Cl [Compound 110]
Herbicidal rating GALAP ([1]; rate 0.0158 kg/ha): 1.0 | Herbicidal rating GALAP ([1]; rate 0.0315 kg/ha): 3.0 | Herbicidal rating GALAP ([1]; rate 0.0630 kg/ha): 4.0 | CYPIR herbicidal effect rating ([2]; 0.0313 kg/ha): 3.0 | CYPIR herbicidal effect rating ([2]; 0.0625 kg/ha): 4.0 | CYPIR herbicidal effect rating ([2]; 0.1250 kg/ha): 7.0 | CYPIR herbicidal effect rating ([2]; 0.2500 kg/ha): 8.0 | ECHORC herbicidal effect rating ([3]; 0.0313 kg/ha): 7.0 | ECHORC herbicidal effect rating ([3]; 0.0625 kg/ha): 7.0 | ECHORC herbicidal effect rating ([3]; 0.1250 kg/ha): 7.0 | ECHORC herbicidal effect rating ([3]; 0.2500 kg/ha): 9.0 | Preemergence herbicidal rating TRZAWR ([4]; rate 0.0156 kg/ha): 0.0 | Preemergence herbicidal rating TRZAWR ([4]; rate 0.0313 kg/ha): 1.0 | Preemergence herbicidal rating TRZAWR ([4]; rate 0.0625 kg/ha): 1.0 | Preemergence herbicidal rating TRZAWR ([4]; rate 0.1250 kg/ha): 1.0 | Preemergence herbicidal rating TRZAWR ([4]; rate 0.2500 kg/ha): 1.0 | Preemergence herbicidal rating CHEAL ([5]; rate 0.0156 kg/ha): 8.0 | Preemergence herbicidal rating CHEAL ([5]; rate 0.0313 kg/ha): 9.0 | Preemergence herbicidal rating CHEAL ([5]; rate 0.0625 kg/ha): 9.0 | Preemergence herbicidal rating CHEAL ([5]; rate 0.1250 kg/ha): 9.0 | Preemergence herbicidal rating CHEAL ([5]; rate 0.2500 kg/ha): 9.0 | Preemergence herbicidal rating CHEAL ([5]; rate 0.5000 kg/ha): 9.0 | Herbicidal rating CASOB ([6]; rate 0.0158 kg/ha): 1.0 | Herbicidal rating CASOB ([6]; rate 0.0315 kg/ha): 1.0 | Herbicidal rating CASOB ([6]; rate 0.0630 kg/ha): 1.0 | Preemergence herbicidal rating AMBEL ([7]; rate 0.0156 kg/ha): 1.0 | Preemergence herbicidal rating AMBEL ([7]; rate 0.0313 kg/ha): 2.5 | Preemergence herbicidal rating AMBEL ([7]; rate 0.0625 kg/ha): 3.5 | Preemergence herbicidal rating AMBEL ([7]; rate 0.1250 kg/ha): 4.5 | Preemergence herbicidal rating AMBEL ([7]; rate 0.2500 kg/ha): 6.5 | Preemergence herbicidal rating AMBEL ([7]; rate 0.5000 kg/ha): 9.0 | Preemergence herbicidal rating ZEAMX ([8]; rate 0.0156 kg/ha): 0.0 | Preemergence herbicidal rating ZEAMX ([8]; rate 0.0313 kg/ha): 0.5 | Preemergence herbicidal rating ZEAMX ([8]; rate 0.0625 kg/ha): 1.0 | Preemergence herbicidal rating ZEAMX ([8]; rate 0.1250 kg/ha): 2.5 | Preemergence herbicidal rating ZEAMX ([8]; rate 0.2500 kg/ha): 3.5 | Preemergence herbicidal rating ZEAMX ([8]; rate 0.5000 kg/ha): 4.0 | CYPSE herbicidal effect rating ([9]; 0.0313 kg/ha): 0.0 | CYPSE herbicidal effect rating ([9]; 0.0625 kg/ha): 0.0 | CYPSE herbicidal effect rating ([9]; 0.1250 kg/ha): 0.0 | CYPSE herbicidal effect rating ([9]; 0.2500 kg/ha): 0.0 | Preemergence herbicidal rating IPOHE ([10]; rate 0.0156 kg/ha): 3.5 | Preemergence herbicidal rating IPOHE ([10]; rate 0.0313 kg/ha): 4.5 | Preemergence herbicidal rating IPOHE ([10]; rate 0.0625 kg/ha): 5.5 | Preemergence herbicidal rating IPOHE ([10]; rate 0.1250 kg/ha): 9.0 | Preemergence herbicidal rating IPOHE ([10]; rate 0.2500 kg/ha): 9.0 | Preemergence herbicidal rating IPOHE ([10]; rate 0.5000 kg/ha): 9.0 | Preemergence herbicidal rating ORYSAT ([11]; rate 0.0156 kg/ha): 0.0 | Preemergence herbicidal rating ORYSAT ([11]; rate 0.0313 kg/ha): 0.5 | Preemergence herbicidal rating ORYSAT ([11]; rate 0.0625 kg/ha): 0.5 | Preemergence herbicidal rating ORYSAT ([11]; rate 0.1250 kg/ha): 1.5 | Preemergence herbicidal rating ORYSAT ([11]; rate 0.2500 kg/ha): 5.0 | Preemergence herbicidal rating ORYSAT ([11]; rate 0.5000 kg/ha): 3.0 | Herbicidal rating ZEAMX ([12]; rate 0.0158 kg/ha): 5.0 | Herbicidal rating ZEAMX ([12]; rate 0.0315 kg/ha): 6.5 | Herbicidal rating ZEAMX ([12]; rate 0.0630 kg/ha): 7.0

CCOC(=O)CN1C(=O)C(COC)SC1=Nc1cc(-n2c(=O)cc(C(F)(F)F)n(C)c2=O)c(F)cc1Cl (centres unmarked) [Compound 156, Ethyl 2-{{2-chloro-5-[3,6-dihydro-3-methyl-2,6-dioxo-4-(trifluoromethyl)-1(2H)-pyrimidinyl]-4-fluorophenyl}imino}-5-(methoxymethyl)-4-oxo-3-thiazolidine-acetate]
Herbicidal rating GALAP ([1]; rate 0.0156 kg/ha): 0.0 | Herbicidal rating GALAP ([1]; rate 0.0313 kg/ha): 0.0 | Herbicidal rating GALAP ([1]; rate 0.0625 kg/ha): 3.0 | herbicidal effect rating, CYPIR ([2]; 0.2500 kg/ha): 0.0 | herbicidal effect rating, ECHORC ([3]; 0.2500 kg/ha): 0.0 | Preemergence herbicidal rating TRZAWR [4, 13]: 0.0 | Preemergence herbicidal rating TRZAWR [4, 14]: 0.0 | Preemergence herbicidal rating TRZAWR [4, 15]: 0.0 | Preemergence herbicidal rating TRZAWR [4, 16]: 3.0 | Preemergence herbicidal rating CHEAL [5, 13]: 9.0 | Preemergence herbicidal rating CHEAL [5, 14]: 9.0 | Preemergence herbicidal rating CHEAL [5, 15]: 9.0 | Preemergence herbicidal rating CHEAL [5, 16]: 9.0 | Herbicidal rating CASOB ([6]; rate 0.0156 kg/ha): 0.0 | Herbicidal rating CASOB ([6]; rate 0.0313 kg/ha): 0.0 | Herbicidal rating CASOB ([6]; rate 0.0625 kg/ha): 1.0 | Preemergence herbicidal rating AMBEL [7, 13]: 0.0 | Preemergence herbicidal rating AMBEL [7, 14]: 0.0 | Preemergence herbicidal rating AMBEL [7, 15]: 5.0 | Preemergence herbicidal rating AMBEL [7, 16]: 9.0 | Preemergence herbicidal rating ZEAMX [8, 13]: 0.0 | Preemergence herbicidal rating ZEAMX [8, 14]: 1.0 | Preemergence herbicidal rating ZEAMX [8, 15]: 2.0 | Preemergence herbicidal rating ZEAMX [8, 16]: 5.0 | herbicidal effect rating, CYPSE ([9]; 0.2500 kg/ha): 0.0 | Preemergence herbicidal rating IPOHE [10, 13]: 0.0 | Preemergence herbicidal rating IPOHE [10, 14]: 3.0 | Preemergence herbicidal rating IPOHE [10, 15]: 9.0 | Preemergence herbicidal rating IPOHE [10, 16]: 9.0 | Preemergence herbicidal rating ORYSAT [11, 13]: 0.0 | Preemergence herbicidal rating ORYSAT [11, 14]: 0.0 | Preemergence herbicidal rating ORYSAT [11, 15]: 0.0 | Preemergence herbicidal rating ORYSAT [11, 16]: 3.0 | Herbicidal rating ZEAMX ([12]; rate 0.0156 kg/ha): 4.5 | Herbicidal rating ZEAMX ([12]; rate 0.0313 kg/ha): 4.5 | Herbicidal rating ZEAMX ([12]; rate 0.0625 kg/ha): 4.5
